Test results reported in patent publication US10941143B2, “Imidazo [1,5-a]pyridine compounds and their use” (Alterity Therapeutics Limited, priority 2019, dated 2021).

system: human neuroblastoma line BE(2)-M17 (M17) cells; experiment: Measurement of Fe efflux from cells; assay type: cell-based; details: M17 cells pre-loaded with 57Fe, compound 20 μM for 2 h, percentage increase of Fe in media relative to media without compound, read-out: % Fe Efflux Range
Experimental: Method I: Measurement of Fe Efflux from Cells
Compounds of the current invention were assessed for their ability to efflux iron (Fe) from a cell using the following protocol.
The human neuroblastoma line BE(2)-M17 (M17) cell cultures were acquired from Sigma Aldrich (Catalogue #: 95011816). M17 Cells were maintained in Opti-MEM reduced serum media supplemented with 10% fetal bovine serum (Bovogen, SFBSF) and passaged twice weekly. Cells were cultured at 37° C. in the presence of 5% CO2. Culture supplies were sourced from Thermo Fisher unless otherwise stated.
A solution of ^57Fe cold isotope was prepared by dissolving ^57Fe metal (>95% enrichment, Trace Sciences International) in concentrated HCl to give a final concentration of 573 mM. From this master solution, a 10 mM working solution was prepared in sterile water. The working solution was used within two months of preparation.
M17 cells were loaded with iron initially by seeding into 48-well plates at a density of 0.15×10^6 cells per well in 0.5 mL media. After 48 h, old media was discarded. Fresh media was supplemented with 20 μM ^57Fe isotope, from the 10 mM ^57Fe working solution. Cells received 0.2 mL of this ^57Fe enriched media and were returned to the incubator for 20 h. The ability of experimental compounds to efflux iron was determined by the dissolution of compounds in DMSO and diluted in Hanks' Balanced Salt Solution (HBSS) for treatment of M17 cells. After ^57Fe incubation, cells were rinsed twice with HBSS and treated with 0.15 mL trial compound for 2 h at a concentration of 20 μM. All assays included a relevant vehicle (0.4%-0.8% DMSO) as well as a positive control (20 μM). Following the treatment period, 0.1 mL of media was collected from cells and the extracellular ^57Fe content was analysed via inductively coupled mass spectrometry (ICP-MS, Agilent 7700x series instrument).
To perform this protocol the following supplies were purchased from Sigma Aldrich: anhydrous dimethyl sulfoxide (DMSO, Catalogue #: 276855), Hanks' Balanced Salt Solution supplemented with 20 mM HEPES and 4.2 mM Sodium Bicarbonate (HBSS, pH: 7.4, Catalogue #: H1387).
After 2 h the Fe levels in the media were measured and the increase determined as a percentage increase relative to the cell media in the absence of the compound.

| Structure (SMILES) | activation at 20 µM [%] |
| --- | --- |
| Oc1cccnc1-c1nc(-c2cccc(F)c2O)n2ncccc12 [Compound 121] | > 150 |
| Oc1cccnc1-c1nc(-c2cccc(Cl)c2O)n2ncccc12 [Compound 122] | > 150 |
| Cc1ccc(O)c(-c2nc(-c3ncccc3O)c3cccnn23)c1 [Compound 123] | > 150 |
| CN(C)Cc1cccc(-c2nc(-c3ccccc3O)c3ccccn23)c1O [Compound 124, 2-((Dimethylamino)methyl)-6-(1-(2-hydroxyphenyl)imidazo[1,5-a]pyridin-3-yl)phenol] | > 150 |
| COc1cnccc1-c1nc(-c2ccccc2O)c2ccccn12 [Compound 125] | < 30 |
| COC(=O)c1ccccc1-c1nc(-c2ncccc2O)c2ccccn12 [Compound 126] | < 30 |
| Oc1cccnc1-c1nc(-c2ccc(Cl)cc2)n2ccccc12 [Compound 127] | < 30 |
| Oc1cccnc1-c1nc(-c2ccccc2F)n2ccccc12 [Compound 130, 2-(3-(2-Fluorophenyl)imidazo[1,5-a]pyridin-1-yl)pyridin-3-ol] | < 30 |
| Oc1ccccc1-c1nc(-c2cccnc2O)c2ccccn12 [Compound 141, 3-(3-(2-Hydroxyphenyl)imidazo[1,5-a]pyridin-1-yl)pyridin-2-ol] | 100 to 150 |
| Cc1cccc(-c2nc(-c3cccnc3O)c3ccccn23)c1O [Compound 142] | 30 to 100 |
| Oc1cc(Cl)ccc1-c1nc(-c2cccnc2O)c2ccccn12 [Compound 143] | < 30 |
| Oc1ccc(F)cc1-c1nc(-c2cccnc2O)c2ccccn12 [Compound 144, 3-(3-(5-Fluoro-2-hydroxyphenyl)imidazo[1,5-a]pyridin-1-yl)pyridin-2-ol] | 100 to 150 |
| Oc1ncccc1-c1nc(-c2cc(F)cc(F)c2O)n2ccccc12 [Compound 145] | 100 to 150 |
| CCN(CC)c1ccc(-c2nc(-c3cccnc3O)c3ccccn23)c(O)c1 [Compound 146] | 30 to 100 |
| Cc1ccc(O)c(-c2nc(-c3cccnc3O)c3ccccn23)c1 [Compound 147, 3-(3-(2-Hydroxy-5-methylphenyl)imidazo[1,5-a]pyridin-1-yl)pyridin-2-ol] | 100 to 150 |
| Oc1ncccc1-c1nc(-c2cccc(F)c2O)n2ccccc12 [Compound 148] | 30 to 100 |
| Oc1ccc(Cl)cc1-c1nc(-c2cccnc2O)c2ccccn12 [Compound 149] | 30 to 100 |
| Oc1ncccc1-c1nc(-c2cccc(Cl)c2O)n2ccccc12 [Compound 150] | 30 to 100 |
| Oc1cccc(F)c1-c1nc(-c2cccnc2O)c2ccccn12 [Compound 152] | 30 to 100 |
| COc1ccncc1-c1nc(-c2ccccc2O)n2ccccc12 [Compound 153] | < 30 |
| COc1ccncc1-c1nc(-c2cc(F)ccc2O)n2ccccc12 [Compound 154] | < 30 |
| COc1ccncc1-c1nc(-c2cc(F)cc(F)c2O)n2ccccc12 [Compound 155] | < 30 |

| Structure (SMILES) | activation at 20 µM [%] |
| --- | --- |
| COc1ccncc1-c1nc(-c2c(O)cccc2F)n2ccccc12 [Compound 156] | < 30 |
| COc1ccncc1-c1nc(-c2cccc(F)c2O)n2ccccc12 [Compound 157] | < 30 |
| Oc1ccncc1-c1nc(-c2ccccc2O)n2ccccc12 [Compound 158] | 30 to 100 |
| Oc1ccncc1-c1nc(-c2cc(F)ccc2O)n2ccccc12 [Compound 159] | 30 to 100 |
| Oc1ccncc1-c1nc(-c2cc(F)cc(F)c2O)n2ccccc12 [Compound 160] | 30 to 100 |
| Oc1ccncc1-c1nc(-c2c(O)cccc2F)n2ccccc12 [Compound 161] | 30 to 100 |
| Oc1ccncc1-c1nc(-c2cccc(F)c2O)n2ccccc12 [Compound 162] | 30 to 100 |
| COc1ccncc1-c1nc(-c2cccc(C)c2O)n2ccccc12 [Compound 163] | < 30 |
| CN(C)Cc1cccc(-c2nc(-c3cccnc3O)c3ccccn23)c1O [Compound 168] | < 30 |
| Cc1ccc(O)c(-c2nc(-c3cnccc3O)c3ccccn23)c1 [Compound 169] | 30 to 100 |
| Oc1ccncc1-c1nc(-c2cccc(Cl)c2O)n2ccccc12 [Compound 171] | 30 to 100 |
| Oc1ccncc1-c1nc(-c2c(O)cccc2Cl)n2ccccc12 [Compound 172] | 30 to 100 |
| Oc1cnccc1-c1nc(-c2ccccc2O)n2ccncc12 [Compound 174] | > 150 |
| Oc1cnccc1-c1nc(-c2cccc(F)c2O)n2ccncc12 [Compound 175] | > 150 |
| Cc1cccc(-c2nc(-c3ccncc3O)c3cnccn23)c1O [Compound 177] | > 150 |
| Oc1cnccc1-c1nc(-c2cc(F)ccc2O)n2ccncc12 [Compound 178] | > 150 |
| Oc1cnccc1-c1nc(-c2cc(Cl)ccc2O)n2ccncc12 [Compound 179] | > 150 |
| Cc1ccc(O)c(-c2nc(-c3ccncc3O)c3cnccn23)c1 [Compound 180] | > 150 |
| Oc1cnccc1-c1nc(-c2ccccc2O)n2ncccc12 [Compound 181] | 100 to 150 |
| Cc1ccc(O)c(-c2nc(-c3ccncc3O)c3cccnn23)c1 [Compound 182] | 30 to 100 |
| Oc1cnccc1-c1nc(-c2ccccc2O)n2cccnc12 [Compound 185] | 100 to 150 |
| Cc1ccc(O)c(-c2nc(-c3ccncc3O)c3ncccn23)c1 [Compound 186] | 30 to 100 |
